This passage reports IC50 results from patent US8324245B2, “Quinoline derivative and quinazoline derivative inhibiting self-phosphorylation of hepatocytus proliferator receptor, and medicinal composition containing the same” (Kyowa Hakko Kirin Co., Ltd., priority 2001, dated 2012).

Structures are written as SMILES. pIC50: −log10 of the molar value.

The target of this assay is T1, met (HGF receptor) in human gastric cancer cells MKN45 (Homo sapiens, UniProt P08581).
T1 construct: endogenous in cells; host or cells: MKN45 human gastric cancer cells
T1 sequence (P08581 25-1390): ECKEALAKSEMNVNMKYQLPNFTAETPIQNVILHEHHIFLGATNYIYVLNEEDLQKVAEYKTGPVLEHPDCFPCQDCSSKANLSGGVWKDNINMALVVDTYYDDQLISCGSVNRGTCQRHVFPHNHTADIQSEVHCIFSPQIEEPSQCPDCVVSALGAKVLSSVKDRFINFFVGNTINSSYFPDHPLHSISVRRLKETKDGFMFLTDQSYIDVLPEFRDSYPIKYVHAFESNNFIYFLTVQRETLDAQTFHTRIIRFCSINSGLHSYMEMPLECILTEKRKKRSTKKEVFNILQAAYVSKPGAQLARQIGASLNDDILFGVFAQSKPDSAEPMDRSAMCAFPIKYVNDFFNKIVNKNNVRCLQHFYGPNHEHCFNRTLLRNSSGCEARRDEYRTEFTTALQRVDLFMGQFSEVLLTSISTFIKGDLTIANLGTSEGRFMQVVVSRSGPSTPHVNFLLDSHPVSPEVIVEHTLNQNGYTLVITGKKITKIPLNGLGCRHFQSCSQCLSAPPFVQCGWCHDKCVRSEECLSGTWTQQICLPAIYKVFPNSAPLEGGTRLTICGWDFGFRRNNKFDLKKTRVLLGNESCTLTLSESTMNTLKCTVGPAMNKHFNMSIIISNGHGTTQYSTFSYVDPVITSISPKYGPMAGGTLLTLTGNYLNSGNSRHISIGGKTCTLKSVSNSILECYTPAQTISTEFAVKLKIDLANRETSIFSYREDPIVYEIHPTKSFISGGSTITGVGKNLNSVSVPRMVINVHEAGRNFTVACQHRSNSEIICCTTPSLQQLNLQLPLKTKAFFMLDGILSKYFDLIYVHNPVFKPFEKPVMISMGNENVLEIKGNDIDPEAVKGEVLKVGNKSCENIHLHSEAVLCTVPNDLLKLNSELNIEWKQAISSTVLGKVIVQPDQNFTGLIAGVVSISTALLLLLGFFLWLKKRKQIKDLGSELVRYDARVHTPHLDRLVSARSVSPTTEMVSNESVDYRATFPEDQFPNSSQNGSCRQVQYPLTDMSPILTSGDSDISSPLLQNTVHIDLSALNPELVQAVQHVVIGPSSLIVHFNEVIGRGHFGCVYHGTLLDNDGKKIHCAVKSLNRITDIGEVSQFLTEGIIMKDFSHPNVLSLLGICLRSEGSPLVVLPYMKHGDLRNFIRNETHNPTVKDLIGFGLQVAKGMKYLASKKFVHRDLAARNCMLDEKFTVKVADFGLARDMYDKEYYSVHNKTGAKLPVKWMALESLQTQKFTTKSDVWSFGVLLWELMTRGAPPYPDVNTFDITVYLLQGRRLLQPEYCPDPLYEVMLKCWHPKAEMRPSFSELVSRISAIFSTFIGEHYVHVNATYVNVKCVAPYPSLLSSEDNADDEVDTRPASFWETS
As to the kind of experiment: Inhibitory activity against met-autophosphorylation using ELISA method (2), MKN45 cells, HGF-independent. Format: cell-based. The method in brief:
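Met autophosphorylation was read by sandwich ELISA: phosphotyrosine capture (PY20), anti-HGF receptor detection, peroxidase read-out at 450 nm. Lysates came from MKN45 gastric cancer cells kept in 0.1% FCS RPMI and treated 1 h at 37 °C with test compound, with no added HGF.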
Background: ELISA stands for enzyme-linked immunosorbent assay.
For the compound `COc1cc2nccc(Oc3ccc(NC(=O)NC(=O)Cc4cccc(F)c4F)cc3F)c2cc1OC` [Example 139, 1-[2-(2,3-difluorophenyl)acetyl]-3-[4-(6,7-dimethoxyquinolin-4-yloxy)-3-fluorophenyl]urea], the pIC50 (usually −log10 of the IC50, conventionally taken in molar units) was 6.61.

As for `COc1cc2nccc(Oc3ccc(NC(=O)NC(=O)Cc4cccs4)cc3Cl)c2cc1OC` [Example 32, 1-[3-chloro-4-(6,7-dimethoxyquinolin-4-yloxy)-phenyl]-3-(2-thiophen-2-ylacetyl)urea], the pIC50 was 6.77. The pIC50 values of the last two compounds are within 0.2 log units of each other.

For the compound `COc1cc2nccc(Oc3ccc(NC(=O)C(C)C(=O)Nc4ccccc4)cc3)c2cc1OC` (stereo not shown) [Example 225, N-[4-(6,7-dimethoxyquinolin-4-yloxy)phenyl]-2-methyl-N′-phenylmalonamide], the pIC50 is 6.55.

Consider `CCN(CC)CCCOc1cc2nccc(Oc3ccc(NC(=O)NC(=O)Cc4ccccc4F)cc3F)c2cc1OC` [Example 293, 1-{4-[7-(3-Diethylamino-propoxy)-6-methoxy-quinolin-4-yloxy]-3-fluoro-phenyl}-3-[2-(2-fluoro-phenyl)-acetyl]-urea], for which the pIC50 was 7.68.

In the case of `COc1cc2nccc(Oc3ccc(NC(=S)NC(=O)Cc4ccccc4F)cc3Cl)c2cc1OC` [Example 152, 1-[3-chloro-4-(6,7-dimethoxyquinolin-4-yloxy)phenyl]-3-[2-(2-fluorophenyl)acetyl]thiourea], the negative logarithm of the IC50 (pIC50) is 6.61.

In the case of `COc1cc2nccc(Oc3ccc(NC(=O)NC(=O)Cc4ccccc4F)cc3F)c2cc1OC` [Example 27, 1-[4-(6,7-dimethoxyquinolin-4-yloxy)-3-fluorophenyl]-3-[2-(2-fluorophenyl)acetyl]urea], the pIC50 was 7.10.

`COc1cc2c(Oc3ccc(NC(=S)NC(=O)Cc4ccccc4F)cc3F)ccnc2cc1OCC(O)CN1CCCCC1` (stereo not shown) [Example 318, 1-(3-Fluoro-4-[7-(2-hydroxy-3-piperidin-1-yl-propoxy)-6-methoxy-quinolin-4-yloxy]-phenyl)-3-[2-(2-fluoro-phenyl)-acetyl]-thiourea] gave a pIC50 of 7.55.

As for `COc1cc2nccc(Oc3ccc(NC(=O)NC(=O)Nc4cccc(F)c4)cc3)c2cc1OC` [Example 251, N-(3-fluorophenyl)-({[4-(6,7-dimethoxy-quinolin-4-yloxy)anilino]carbonyl}amino)methanamide], the pIC50 is 6.41.

The compound `COc1cc2nccc(Oc3ccc(NC(=O)NC(=O)CN4CCc5ccccc54)cc3F)c2cc1OC` [Example 122, 1-[2-(2,3-dihydro-1H-1-indol-1-yl)acetyl]-3-[4-(6,7-dimethoxyquinolin-4-yloxy)-3-fluorophenyl]urea] showed a pIC50 of 6.52.

Consider `COc1cc2nccc(Oc3ccc(NC(=O)NC(=O)CSC4CCCCC4)c(F)c3)c2cc1OC` [Example 114, 1-(2-cyclohexylsulfanylacetyl)-3-[4-(6,7-dimethoxyquinolin-4-yloxy)-2-fluorophenyl]urea], for which the pIC50 was 6.31.

Compound `COc1cc2c(Oc3ccc(NC(=O)NC(=O)Cc4ccc(F)cc4)cc3F)ccnc2cc1OCCCCN1CCN(C)CC1` [Example 43, 1-(3-fluoro-4-{6-methoxy-7-[4-(4-methyl-piperazin-1-yl)-butoxy]quinolin-4-yloxy}phenyl)-3-[2-(4-fluorophenyl)acetyl]urea] showed a pIC50 of 6.78.

On to `COc1cc2nccc(Oc3ccc(NC(=S)NC(=O)Cc4ccccc4[N+](=O)[O-])cc3)c2cc1OC` [Example 155, 1-[4-(6,7-dimethoxyquinolin-4-yloxy)phenyl]-3-[2-(2-nitrophenyl)acetyl]thiourea], for which the pIC50 is 6.01.

Compound `COc1cc2nccc(Oc3ccc(NC(=O)CC(=O)Nc4cccnc4)cc3)c2cc1OC` [Example 227, N-[4-(6,7-dimethoxyquinolin-4-yloxy)phenyl]-N′-pyridin-3-ylmalonamide] had a pIC50 of 5.36.

The compound `COc1cc2nccc(Oc3ccc(NC(=O)NC(=O)CN(C)C(C)C)cc3Cl)c2cc1OC` [Example 112, 1-[3-chloro-4-(6,7-dimethoxyquinolin-4-yloxy)phenyl]-3-[2-(isopropylmethylamino)acetyl]urea] gave a pIC50 of 5.76.

`COc1cc2c(Oc3ccc(NC(=S)NC(=O)Cc4cccc(F)c4)cc3F)ccnc2cc1OCCN1CCOCC1` [Example 279, 1-{3-Fluoro-4-[6-methoxy-7-(2-morpholin-4-yl-ethoxy)-quinolin-4-yloxy]-phenyl}-3-[2-(3-fluoro-phenyl)-acetyl]-thiourea]: the pIC50 was 7.69.

Take `COc1cc2c(Oc3ccc(NC(=S)NC(=O)Cc4ccc(F)cc4)cc3F)ccnc2cc1OCC(O)CN1CCCCC1` (stereo not shown) [Example 329, 1-{3-Fluoro-4-[7-(2-hydroxy-3-piperidin-1-yl-propoxy)-6-methoxy-quinolin-4-yloxy]-phenyl}-3-[2-(4-fluoro-phenyl)-acetyl]-thiourea]: the pIC50 is 7.29.

With `COc1cc2nccc(Oc3ccc(NC(=S)NC(=O)Cc4cc(F)cc(F)c4)c(F)c3)c2cc1OC` [Example 196, 1-[2-(3,5-difluorophenyl)acetyl]-3-[4-(6,7-dimethoxyquinolin-4-yloxy)-2-fluorophenyl]thiourea], the pIC50 was 6.49.

Take `COc1cc2nccc(Oc3ccc(NC(=O)NC(=O)Nc4ccccc4Br)cc3)c2cc1OC` [Example 247, N-(2-bromophenyl)-({[4-(6,7-dimethoxy-quinolin-4-yloxy)anilino]carbonyl}amino)methanamide]: the pIC50 is 6.19. This pIC50 lies 0.30 log units lower than the previous one.

On to `COc1cc2c(Oc3ccc(NC(=O)NC(=O)Cc4ccccc4)cc3F)ccnc2cc1OCCCN1CCCCC1` [Example 52, 1-{3-fluoro-4-[6-methoxy-7-(3-piperidin-1-yl-propoxy)quinolin-4-yloxy]phenyl}-3-phenylacetylurea], for which the pIC50 is 6.77.

As for `COc1cc2c(Oc3ccc(NC(=O)NC(=O)Cc4ccc(F)cc4)cc3F)ccnc2cc1OCCCN1CCOCC1` [Example 46, 1-{3-fluoro-4-[6-methoxy-7-(3-morpholin-4-yl-propoxy)quinolin-4-yloxy]phenyl}-3-[2-(4-fluorophenyl)-acetyl]urea], the pIC50 is 6.64. This pIC50 and that of the compound before are within 0.2 log units of each other.

`COc1cc2nccc(Oc3ccc(NC(=O)NC(=O)CN4CCCc5cc(C)ccc54)c(F)c3)c2cc1OC` [Example 119, 1-[4-(6,7-dimethoxyquinolin-4-yloxy)-2-fluorophenyl]-3-[2-(6-methyl-3,4-dihydro-2H-quinolin-1-yl)acetyl]urea] showed a pIC50 of 6.35.

`COc1cc2nccc(Oc3ccc(NC(=S)NC(=O)Cc4c(F)ccc(F)c4F)c(F)c3)c2cc1OC` [Example 205, 1-[4-(6,7-dimethoxyquinolin-4-yloxy)-2-fluorophenyl]-3-[2-(2,3,6-trifluorophenyl)acetyl]-thiourea] showed a pIC50 of 6.58.

Turning to `COc1cc2nccc(Oc3ccc(NC(=S)NC(=O)Cc4ccccc4)cc3C)c2cc1OC` [Example 67, 1-[4-(6,7-dimethoxyquinolin-4-yloxy)-3-methyl-phenyl]-3-phenylacetylthiourea], the pIC50 is 7.71.

`COc1cc2nccc(Oc3ccc(NC(=S)NC(=O)Cc4ccccc4C)cc3F)c2cc1OC` [Example 84, 1-[4-(6,7-dimethoxyquinolin-4-yloxy)-3-fluorophenyl]-3-(2-o-tolylacetyl)thiourea] had a pIC50 of 7.40.

Turning to `COc1cc2nccc(Oc3ccc(NC(=O)NC(=O)Nc4ncccc4C)cc3)c2cc1OC` [Example 233, N-(3-methyl-2-pyridyl)-({[4-(6,7-dimethoxy-quinolin-4-yloxy)anilino]carbonyl}amino)methanamide], the pIC50 is 6.49.
